Assay results as given in US20260216336A1, “NEW PSORALEN COMPOUND” (NAGASAKI UNIVERSITY, priority 2022, published 2026).
Where two headings read alike, the source gives them in different places.

How the values were obtained:
[1] = system: DNA; conditions: background statement on commercially available reagent; cited from earlier work
[2] = system: DNA; experiment: DNA crosslinking efficiency of psoralen reagents (general statements, no method given); format: biochemical; conditions: studies conducted by the inventors

| Structure (SMILES) | DNA crosslinking efficiency [1] | DNA crosslinking efficiency [2] |
| --- | --- | --- |
| Cc1oc2c(C)c3oc(=O)cc(C)c3cc2c1COCCCCCCOP(OCCC#N)N(C(C)C)C(C)C (centres unmarked) [Psoralen C6 Phosphoramidite, 6-[4′-(Hydroxymethyl)-4,5′,8-trimethylpsoralen]-hexyl-1-O-(2-cyanoethyl)-(N,N-diisopropyl)-phosphoramidite] | favorable DNA crosslinking efficiency | – |
| O=C(CCCOc1c2occc2cc2ccc(=O)oc12)ON1C(=O)CCC1=O [SPB, succinimidyl-[4-(psoralen-8-yloxy)]butyrate] | – | very low |
